In brackets after ≈: the same amount, converted by molar mass.

Series [1] can be described thus: Atovaquone solubility in pharmaceutical excipients. The format is physicochemical. The following applies: thermodynamic from solid. How it is done: Excess atovaquone (100 mg/mL) (Molekula, Irvine, Calif.) was added to each of the following excipients: Benzyl Benzoate, Tween 20, Tween 80, PEG 200, PEG 400, Labrafac, Labrafil, Capryol, Capmul, Captex, Propylene Glycol and Isopropyl Palmitate. The mixtures were shaken at 100 RPM at 37° C. for 48 hours. Each individual sample was centrifuged at 3000 RPM for 10 minutes. The supernatant was then filtered through a 0.45 μm PTFE filter. Quantification of atovaquone content in the filtrate was performed using a Dionex HPLC (Thermo Fisher Scientific Inc., Waltham, Mass.) with an Inertsil® ODS-2 column (5 μm, 4.6×250 mm) with a mobile phase 0.1% TFA ACN: 0.1% TFA H2O (80:20) at flow rate of 2 mL/min and a run time of 10 minutes.

Series [2] can be described thus: Atovaquone solubility in pharmaceutical excipients. Type of series: physicochemical. Particulars: thermodynamic from solid. This is another data set of the same source.

Consider `O=C1C(O)=C([C@H]2CC[C@H](c3ccc(Cl)cc3)CC2)C(=O)c2ccccc21` [atovaquone], for which the solubility (as a rule, how much of the substance goes into solution per volume) at 48 h in series [1] (Benzyl Benzoate (neat excipient), organic solvent or mixture, in Benzyl Benzoate, 37° C.) was determined as 14300 µg/mL (≈ 39 mM); in series [1] (Capryol (neat excipient), oil or lipid, in Capryol, 37° C.) it was 5540 µg/mL (≈ 15.1 mM); in series [1] (Isopropyl Palmitate (neat excipient), oil or lipid, in Isopropyl Palmitate, 37° C.), 2460 µg/mL (≈ 6.71 mM); in series [1] (Labrafil (neat excipient), oil or lipid, in Labrafil, 37° C.) it was 3980 µg/mL (≈ 10.8 mM); in series [1] (Labrasol (neat excipient), organic solvent or mixture, in Labrasol, 37° C.), 10200 µg/mL (≈ 27.9 mM); in series [1] (PEG 200 (neat excipient), organic solvent or mixture, in PEG 200, 37° C.), 4780 µg/mL (≈ 13 mM). For the same molecule, the solubility at 48 h in series [1] (PEG 400 (neat excipient), organic solvent or mixture, in PEG 400, 37° C.) worked out at 7220 µg/mL (≈ 19.7 mM); in series [1] (Tween 20 (neat excipient), organic solvent or mixture, in Tween 20, 37° C.), 9690 µg/mL (≈ 26.4 mM); in series [2] (Capmul (neat excipient), oil or lipid, in Capmul, 37° C.), 3470 µg/mL (≈ 9.46 mM); in series [2] (Captex (neat excipient), oil or lipid, in Captex, 37° C.) it was 4590 µg/mL (≈ 12.5 mM); in series [2] (Labrafac (neat excipient), oil or lipid, in Labrafac, 37° C.), 4080 µg/mL (≈ 11.1 mM); in series [2] (Propylene Glycol (neat excipient), organic solvent or mixture, in Proplylene Gycol, 37° C.) it was 380 µg/mL (≈ 1.04 mM). Besides, in series [2] (Tween 80 (neat excipient), organic solvent or mixture, in Tween 80, 37° C.), the solubility at 48 h worked out at 10200 µg/mL (≈ 27.9 mM).

Source of the values: US20200206139A1, “COMPOSITIONS FOR THE IMPROVED DELIVERY OF DRUGS” (BOARD OF REGENTS, THE UNIVERSITY OF TEXAS SYSTEM, priority 2017, published 2020).
